Legend:
human MAGL = target: T1, human MAGL (Homo sapiens, UniProt Q99685); test: MAGL inhibition potency, 4-nitrophenyl acetate (4NPA) hydrolysis, absorbance 405 nm (Example A); type: biochemical; conditions: Method 12: Reaction Biology MAGL enzyme, 15 nM; 4NPA substrate; read-out: MAGL Potency (Detection Method)
T1 construct: recombinant MAGL enzyme (aa 2-303 RBC, internal preparation)
T1 sequence (Q99685 2-303): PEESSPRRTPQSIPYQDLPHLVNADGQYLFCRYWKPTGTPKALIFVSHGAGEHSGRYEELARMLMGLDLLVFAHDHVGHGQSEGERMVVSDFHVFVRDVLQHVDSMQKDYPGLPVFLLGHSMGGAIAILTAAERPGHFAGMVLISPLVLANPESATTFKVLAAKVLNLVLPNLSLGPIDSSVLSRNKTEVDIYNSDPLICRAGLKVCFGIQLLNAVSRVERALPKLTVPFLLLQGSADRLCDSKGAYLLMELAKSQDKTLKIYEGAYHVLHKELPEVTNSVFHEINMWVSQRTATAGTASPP
Text: The potency of certain compounds for inhibiting MAGL were obtained using the following assays.
The monoacylglycerol lipase inhibitor screening assay kit from Cayman Chemical was used to measure the MAGL potency for the compounds in Tables A-1, A-2, A-3.
Cayman's Monoacylglycerol Lipase Inhibitor Screening Assay provides a method for screening human MAGL inhibitors. MAGL hydrolyzes 4-nitrophenylacetate resulting in a yellow product, 4-nitrophenol, with an absorbance of 405-412 nm.
MAGL Inhibition was measured by the following assay. Monoacylglycerol Lipase (MAGL) inhibition was measured using recombinant MAGL enzyme (aa 2-303 RBC, internal preparation) and the substrate 4-Nitrophenyl acetate (4NPA) (Sigma-Aldrich, N8130). Hydrolysis of the substrate in the presence of the enzyme was measured by absorbance at 405 nm. 10 μL of assay buffer (10 mM Tris pH 7.5, 1 mM EDTA, 0.9% DMSO) was added to a black 384-well non-binding plate with clear bottom (Greiner, 781906) for each reaction. Compounds were dispensed using an acoustic liquid handler (Echo, Beckman) at 45 nL (0.1% DMSO). Test compounds and control for MAGL inhibitor JZL-184 (Caymen Chemical, 13158) were tested in 10-concentration IC50 mode with 3-fold serial dilution at a starting concentration of […]. DMSO control wells were included for reference. A 10.8 nM (1.8×) MAGL mix in assay buffer was prepared, with 25 μL added to each reaction well, for a final assay concentration of […]. No enzyme wells received 25 μL of buffer. Plate was incubated at room temperature for 30 minutes. 35 mM solution of 4NPA in methanol was prepared daily A 4.5×4NPA substrate solution was prepared in assay buffer and 10 μL was added to each reaction well, for a final assay concentration of 0.25 mM. Plate was spun for 1 minute at 1000 rpm before measuring absorbance using a CLARIOstar plate reader (BMG Labtech). A kinetic reading at 405 nm was done every minute for 30 minutes. Data was analyzed using the linear slope of the reaction progress curve and the average of the no-enzyme wells (background) was subtracted from the data. The background-subtracted slope data was converted to % activity using the average of wells with enzyme and DMSO vehicle. IC50s were calculated using GraphPad software (Sigmoidal dose response, variable slope equation).
Table 8 provides potency measurements of MAGL inhibition measured using the Potency Assay of Example A above, with the following modifications described in Table C.
The number after each letter for potency measurement value indicates the Method from Table C that was used to obtain that measurement value (e.g. “A(1)” indicates an IC50 measurement of <50 nM obtained from the Method 1 of Example A in Table C).

human recombinant FAAH = target: T2, human recombinant FAAH (Homo sapiens, UniProt O00519); test: FAAH counter-screen, AMC arachidonoyl amide substrate (Example B); type: biochemical; conditions: Method B; 20 uM AAMCA substrate
T2 construct: purchased Cayman Chemical 700302 (enzyme); kit Item No. 10005196
T2 sequence (O00519 1-579): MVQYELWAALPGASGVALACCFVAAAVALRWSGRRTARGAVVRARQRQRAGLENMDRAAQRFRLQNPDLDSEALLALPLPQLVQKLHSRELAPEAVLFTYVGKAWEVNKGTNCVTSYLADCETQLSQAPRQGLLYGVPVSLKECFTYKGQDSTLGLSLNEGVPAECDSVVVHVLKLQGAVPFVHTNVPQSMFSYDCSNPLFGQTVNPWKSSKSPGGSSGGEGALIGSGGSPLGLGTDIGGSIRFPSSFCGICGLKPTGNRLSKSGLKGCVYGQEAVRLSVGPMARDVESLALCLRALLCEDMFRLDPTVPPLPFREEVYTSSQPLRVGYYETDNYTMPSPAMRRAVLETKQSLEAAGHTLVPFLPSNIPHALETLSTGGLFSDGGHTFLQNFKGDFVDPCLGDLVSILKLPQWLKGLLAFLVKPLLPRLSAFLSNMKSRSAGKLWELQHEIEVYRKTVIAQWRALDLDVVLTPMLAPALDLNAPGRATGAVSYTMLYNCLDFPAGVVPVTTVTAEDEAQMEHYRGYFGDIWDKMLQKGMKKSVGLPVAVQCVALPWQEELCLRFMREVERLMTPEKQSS
Procedure: Comparative compound potency at FAAH can be obtained with the following assay.
MAGL inhibitor compounds were also counter-screened for FAAH inhibition potency using the following assay. Assessment of FAAH inhibition was performed using Fatty Acid Amide Hydrolase Inhibitor Screening Assay Kit (Cayman Item No. 10005196) following manufacture's instruction with some modifications. The kit utilizes human recombinant FAAH and the fluorescent substrate, AMC Arachidonoyl amide (AAMCA). […] 300 nL or 30 nL of test compounds were delivered into a 384-well black plate (Corning, 3573) using a Labcyte Echo, followed by addition of 15 μL of FAAH enzyme (Cayman, 700302) in assay buffer. After a 5-minute pre-incubation at room temperature, 10 μL of AAMCA was added in assay buffer to start the reaction. Final concentration of FAAH enzyme is not specified and AAMCA substrate was used at the 20 uM. After these dilutions, the final concentration of the test compounds ranged from 100 μM to 5.08 nM or 10 μM down to 0.508 nM. The reaction was allowed to progress for 60 minutes, while the plate was read on an Envision plate reader at an Ex/Em of 350/460 nm with readings every minute. The data was analyzed in Microsoft Excel, using the slope between 30 and 59 minutes. The average of the no-enzyme wells (background) was subtracted from the data. The background-subtracted slope data was converted to % activity using the average of wells with enzyme and DMSO vehicle. IC50 values were calculated using GraphPad software (Sigmoidal dose response, variable slope equation).
Compounds listed in Table D were tested in the FAAH Counter-screen of Example B.

Flag-tagged MAGL enzyme = target: T3, Flag-tagged MAGL enzyme (Homo sapiens, UniProt Q99685); test: Reversible MAGL inhibition, washout of immobilized Flag-tagged MAGL enzyme (Example C); type: biochemical; conditions: for activity at 1 µM: 0.5 h, relative to control (no inhibitor before washout), immediately following a 30 minute washout, pre-washout 1 μM, read-out: % MAGL activity returning after washout; for degree to which MAGL enzymatic activity returned following washout: pre-washout compound concentration 1 μM
T3 sequence (Q99685 1-303): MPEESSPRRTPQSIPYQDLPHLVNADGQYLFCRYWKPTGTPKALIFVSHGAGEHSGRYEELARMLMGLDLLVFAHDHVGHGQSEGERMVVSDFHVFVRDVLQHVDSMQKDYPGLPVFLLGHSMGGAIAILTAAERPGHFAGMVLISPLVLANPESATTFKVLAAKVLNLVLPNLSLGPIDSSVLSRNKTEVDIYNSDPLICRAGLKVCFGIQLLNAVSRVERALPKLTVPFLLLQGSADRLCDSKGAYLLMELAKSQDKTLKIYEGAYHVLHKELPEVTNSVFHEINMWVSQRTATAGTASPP
Procedure: The reversible mechanism of MAGL inhibition of a test compound of Formula (I) can be determined. Flag-tagged MAGL enzyme will be immobilized on anti-Flag beads Immobilized enzyme will be incubated+/−inhibitor at a dose that produces complete inhibition. Colorimetric substrate (4-NPA) will be added and the reaction monitored on a plate reader for 30 minutes to verify complete inhibition. Immobilized enzyme will then be washed thoroughly to remove the inhibitor, and fresh substrate will be added. The reaction will be monitored for an additional 30 minutes; returning enzymatic activity will indicate reversibility of inhibition.
For some test compounds, % activity returning after washout may be less than 100% if complete compound unbinding takes longer than 30 minutes.

[1] = tested on: brain and peripheral 2-AG; brain AA; conditions: irreversible MAGL inhibition; cited from earlier work

## COc1ncccc1-c1cc(C(F)(F)F)n(C2CC3(C2)CN(C(=O)c2cc(O)ccc2F)C3)n1 [Compound 15, (2-fluoro-5-hydroxyphenyl)(6-(3-(2-methoxypyridin-3-yl)-5-(trifluoromethyl)-1H1-pyrazol-1-yl)-2-azaspiro[3.3]heptan-2-yl)methanone]
Human MAGL
  IC50: < 0.05 µM
Human recombinant FAAH
  IC50: > 10 µM
Flag-tagged MAGL enzyme
  activity at 1 µM: > 50%
  degree to which MAGL enzymatic activity returned following washout: 99%

## O=C(Oc1ccc([N+](=O)[O-])cc1)N1CCC(C(O)(c2ccc3c(c2)OCO3)c2ccc3c(c2)OCO3)CC1 [JZL-184, reference compound]
[1]
  brain AA: reduce
  brain and peripheral 2-AG: increase
Flag-tagged MAGL enzyme
  activity at 1 µM: < 1%
  degree to which MAGL enzymatic activity returned following washout: complete lack of return of MAGL enzymatic activity

## O=C(c1cc(O)ccc1F)N1CC2(CC(n3nc(-c4ccc[nH]c4=O)cc3C(F)(F)F)C2)C1 [Compound 12, 3-(1-{2-(2-fluoro-5-hydroxybenzoyl)-2-aza-6-spiro[3.3]heptyl}-5-(trifluoromethyl)-3-pyrazolyl)-2(1H)-pyridinone]
Human MAGL
  IC50: < 0.05 µM
Human recombinant FAAH
  IC50: > 10 µM
Flag-tagged MAGL enzyme
  activity at 1 µM: > 50%
  degree to which MAGL enzymatic activity returned following washout: 135%

## COc1ccc(-c2cc(C(F)(F)F)n(C3CC4(C3)CN(C(=O)c3cc(O)ccc3F)C4)n2)cn1 [Compound 17, (2-fluoro-5-hydroxyphenyl) (6-(3-(6-methoxypyridin-3-yl)-5-(trifluoromethyl)-1H-pyrazol-1-yl)-2-azaspiro [3.3]heptan-2-yl) methanone]
Human MAGL
  IC50: < 0.05 µM
Human recombinant FAAH
  IC50: > 10 µM
Flag-tagged MAGL enzyme
  activity at 1 µM: > 50%
  degree to which MAGL enzymatic activity returned following washout: 89%

## O=C(c1cc(O)ccc1F)N1CC2(CC(n3nc(C(F)(F)F)cc3-c3ccccn3)C2)C1 [Compound 5, (2-fluoro-5-hydroxyphenyl){6-[5-(2-pyridyl)-3-(trifluoromethyl)-1-pyrazolyl]-2-aza-2-spiro[3.3]heptyl}methanone]
Human MAGL
  IC50: < 0.05 µM
Human recombinant FAAH
  IC50: > 10 µM
Flag-tagged MAGL enzyme
  activity at 1 µM: > 50%
  degree to which MAGL enzymatic activity returned following washout: 123%

## O=C(c1cc(O)ccc1F)N1CC2(CC(n3nc(-c4ccc(=O)[nH]c4)cc3C(F)(F)F)C2)C1 [Compound 10, 5-(1-{2-(2-fluoro-5-hydroxybenzoyl)-2-aza-6-spiro[3.3]heptyl}-5-(trifluoromethyl)-3-pyrazolyl)-2(1H)-pyridinone]
Human MAGL
  IC50: < 0.05 µM
Human recombinant FAAH
  IC50: > 10 µM
Flag-tagged MAGL enzyme
  activity at 1 µM: > 50%
  degree to which MAGL enzymatic activity returned following washout: 122%
